Experimental findings from ChEMBL document CHEMBL5252571, “Substitution to hydrophobic linker and formation of host-guest complex enhanced the effect of synthetic transcription factor made of pyrrole-imidazole polyamide” (Bioorg Med Chem, 2023) are described below.

Data set [1] deals with GM15850. Put plainly: Protective activity against human GM15850 cells derived from Friedreich's ataxia patient assessed as decrease in cytotoxicity at 1 uM incubated for 48 hrs in presence of 1 mM 2-hydroxypropyl-beta-cyclodextrin adjuvant by cell count reagent SF based colorimetric assay. It is filed as functional.
Data set [2] concerns GM15850. Put plainly: Induction of FRDA expression in human GM15850 cells derived from Friedreich's ataxia patient assessed as increase in FXN transcription at >300 nM incubated for 24 hrs by RT-PCR analysis. In kind it is functional, cell-based.
Data set [3] relates to GM15850. Put plainly: Cytotoxicity against human GM15850 cells derived from Friedreich's ataxia patient assessed as decrease in cell viability at >300 nM incubated for 48 hrs by cell count reagent SF based colorimetric assay. It is filed as toxicity. The note with it: gm15850, 48 h, 0.3 µM.
The nature of data set [4]: Aqueous solubility of compound incubated for 20 mins by HPLC analysis. In kind it is physicochemical. To be noted: buffer.
Data set [5] has as its system GM15850. Kind of data set: Induction of FRDA expression in human GM15850 cells derived from Friedreich's ataxia patient assessed as increase in FXN transcription at 100 to 1000 nM incubated for 24 hrs in presence of 1.0 to 2.5 mM 2-hydroxypropyl-beta-cyclodextrin adjuvant by RT-PCR analysis. It is filed as functional, cell-based. The note with it: dose 100-1000 nM.

In data set [6] the test system is GM15850. Kind of data set: Induction of FRDA expression in human GM15850 cells derived from Friedreich's ataxia patient assessed as increase in FXN transcription at 100 to 300 nM incubated for 24 hrs by RT-PCR analysis. In kind it is functional, cell-based. To be noted: dose 100-300 nM.
For data set [7], the system named is GM15850. Put plainly: Protective activity against human GM15850 cells derived from Friedreich's ataxia patient assessed as decrease in cytotoxicity at 1 uM incubated for 48 hrs in presence of 0.2 to 10 mM 2-hydroxypropyl-beta-cyclodextrin adjuvant by cell count reagent SF based colorimetric assay. It is filed as functional.
The test system of data set [8] is GM15850. Kind of data set: Induction of FRDA expression in human GM15850 cells derived from Friedreich's ataxia patient assessed as increase in FXN transcription incubated for 24 hrs by RT-PCR analysis. In kind it is functional, cell-based.

Each structure is given as a SMILES string. The source made the active and inactive calls. No cut-off for these calls is given here.

Consider `Cc1sc2c(c1C)C(c1ccc(Cl)cc1)=N[C@@H](CC(=O)NCCOCCOCCOCCOCCOCCOCCC(=O)NCCCCCCCNC(=O)CCNC(=O)c1nc(NC(=O)CCNC(=O)c3cc(NC(=O)c4nc(NC(=O)CCNC(=O)c5cc(NC(=O)c6nccn6C)cn5C)cn4C)cn3C)cn1C)c1nnc(C)n1-2`, for which the result in the data set with GM15850 [1] and in the data set with GM15850 [6] was Active. Moreover, the outcome in the data set on GM15850 [2], with GM15850 [5] and in the data set on GM15850 [7] was inactive. For the same compound, in the data set with GM15850 [3], the Activity entry was “Toxic”. In addition, in data set [4], the solubility result is “Soluble”.

Consider `Cc1sc2c(c1C)C(c1ccc(Cl)cc1)=N[C@@H](CC(=O)NCCOCCOCCOCCOCCOCCOCCC(=O)NCCCN(C)CCCNC(=O)CCNC(=O)c1nc(NC(=O)CCNC(=O)c3cc(NC(=O)c4nc(NC(=O)CCNC(=O)c5cc(NC(=O)c6nccn6C)cn5C)cn4C)cn3C)cn1C)c1nnc(C)n1-2`, for which the result in the data set with GM15850 [8] and with GM15850 [6] was Active. The solubility result in data set [4] is reported as “Soluble”.

Consider `Cc1sc2c(c1C)C(c1ccc(Cl)cc1)=N[C@@H](CC(=O)NCCOCCOCCOCCOCCOCCOCCC(=O)NCCCN(C)CCCNC(=O)CCNC(=O)c1nc(NC(=O)CCNC(=O)c3cc(NC(=O)c4nc(NC(=O)CCNC(=O)c5cc(NC(=O)c6nc(NC(=O)CCCN(C)C)cn6C)cn5C)cn4C)cn3C)cn1C)c1nnc(C)n1-2`, for which the outcome with GM15850 [8] was inactive.

As to `Cc1sc2c(c1C)C(c1ccc(Cl)cc1)=N[C@@H](CC(=O)NCCOCCOCCOCCOCCOCCOCCC(=O)NCCCCCCCNC(=O)CCNC(=O)c1nc(NC(=O)CCNC(=O)c3cc(NC(=O)c4nc(NC(=O)CCNC(=O)c5cc(NC(=O)c6nc(NC(=O)CCCN(C)C)cn6C)cn5C)cn4C)cn3C)cn1C)c1nnc(C)n1-2`, the result in the data set with GM15850 [8] was inactive.
